The text below walks through data of patent publication US12168008B2, “Oxabicycloheptanes for modulation of immune response” (LIXTE BIOTECHNOLOGY, INC., priority 2016, dated 2024).

In one data set the test system is solid tumor. The note with it: cited from earlier work.
A short description of the next data set: clinical. The class given is in vivo, human. As to conditions: for Cmax / AUC / Tmax: endothall after LB-100 2.33 mg/m^2. As for the experimental part: The main objective was to determine the safety, tolerability, and maximum tolerated dose of LB-100 given intravenously daily for three consecutive days every 3 weeks. The secondary objectives were to document any evidence of potential anti-tumor activity and obtain pharmacokinetic data on LB-100 and a metabolite, endothall, in patients receiving LB-100 at the MTD (Quang et al., 2016).
The plasma concentrations of LB-100 and endothall were measured (Quang et al., 2016) prior to and over 4 hours after completion of the 2-hour infusion at the MTD of 2.33 mg/m2 of LB-100 on day 1 in one patient and on day 1 and 3 in two patients. […] Plasma concentrations of endothall were low throughout the infusion, being below the lower limit of detection (5 ng/mL) in one patient.

The conditions of data set [1]: human, in vivo; cited from earlier work.

In the case of `C[C@@](O)(/C=C/[C@H]1CC=CC(=O)O1)[C@@H](C[C@@H](O)\C=C/C=C\C=C\CO)OP(=O)(O)O` [fostriecin], the “dose-limiting toxicity (DLT)” value in the data set on solid tumor (in vivo) is given as “without dose-limiting toxicity”. Also, the disease stability with solid tumor (of 46 solid tumor patients) is listed as 16 (34.8%) patients (%).
In general, Cmax refers to the maximum level reached in the sampled fluid or tissue. By AUC is commonly meant the area under the concentration-time curve, a measure of exposure. A lower AUC goes with less exposure. As a reminder, the Tmax is the time at which the peak concentration occurs. `O=C(O)[C@@H]1[C@H](C(=O)O)[C@H]2CC[C@@H]1O2` [endothall]: the maximum concentration (Cmax) result in “clinical” (subject 001-0030, day 1, N-D = below lower limit of quantification (5 ng/ml)) was “N-D^a”; in “clinical” (subject 001-0030, day 3, N-D = below lower limit of quantification (5 ng/ml)), “N-D^a”; in the data set “clinical” (subject 002-0028, day 1), 11.5 ng/mL; in “clinical” (subject 002-0028, day 3), 34.3 ng/mL; in the data set “clinical” (subject 003-0029, day 1), 14.8 ng/mL. The AUC is 22 ng·h/mL in “clinical” (subject 002-0028, day 1); 143 ng·h/mL in “clinical” (subject 002-0028, day 3); 28 ng·h/mL in “clinical” (subject 003-0029, day 1). The Tmax is recorded as 4 h in the data set “clinical” (subject 002-0028, day 1); 4 h in the data set “clinical” (subject 002-0028, day 3); 4 h in “clinical” (subject 003-0029, day 1). Also, the “plasma concentration of endothall” value in the data set “clinical” (one patient, after LB-100 2.33 mg/m2, lower limit of detection) is given as below 5 ng/mL. Moreover, in “clinical” (other two patients, last sampling time point (4 h)), the “maximal concentration of endothall” value is on record as 34.7 ng/mL.
Consider “ipilimumab: human cytotoxic T-lymphocyte antigen 4 (CTLA-4)-blocking antibody”, for which, in data set [1], the incidence of death is given as 2.1% and the “patients with grade 3 or 4 adverse events” value was “up to 15%”.
